Test results taken from ChEMBL document CHEMBL1201862, “PubChem BioAssay data set” (2004).
Several values for one entry are separate records, joined by “and”; a condition that tells them apart may be missing. Equal values may be shown once.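 Method: 48-hour compound exposure of cells in 96-well plates, five concentrations, linear interpolation of endpoints. GI50 marks 50% less growth.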 Activity calls are given as the source filed them. No stated cut-off is given here; in the data, active = GI50 up to about 1.1 µM and inactive = higher.

What was measured:
Assay in all cases: NCI-60 cell line screen, 48 h
[1] = test system: RPMI-8226
[2] = test system: MOLT-4
[3] = test system: OVCAR-5
[4] = test system: HT-29
[5] = test system: UACC-257
[6] = test system: RXF 393
[7] = test system: UACC-62
[8] = test system: M14
[9] = test system: SW-620
[10] = test system: SK-MEL-5
[11] = test system: OVCAR-4
[12] = test system: SK-OV-3
[13] = test system: COLO 205
[14] = test system: SNB-19
[15] = test system: ACHN
[16] = test system: SN12C
[17] = test system: NCI-H23
[18] = test system: HCT-116
[19] = test system: DLD-1
[20] = test system: EKVX
[21] = test system: HL-60
[22] = test system: IGROV-1
[23] = test system: KM-20L2
[24] = test system: SNB-78
[25] = test system: NCI-H226
[26] = test system: DMS-114
[27] = test system: HCC 2998
[28] = test system: HOP-62
[29] = test system: SR
[30] = test system: HCT-15
[31] = test system: M19-MEL
[32] = test system: DMS-273
[33] = test system: UO-31
[34] = test system: SF-539
[35] = test system: CCRF-CEM
[36] = test system: TK-10
[37] = test system: OVCAR-8
[38] = test system: NCI-H460
[39] = test system: LXFL 529
[40] = test system: LOX IMVI
[41] = test system: K562
[42] = test system: SNB-75
[43] = test system: SF-268
[44] = test system: SK-MEL-28
[45] = test system: A549
[46] = test system: BT-549
[47] = test system: CAKI-1
[48] = test system: HOP-92
[49] = test system: MDA-MB-231
[50] = test system: 786-0
[51] = test system: MDA-MB-435
[52] = test system: PC-3
[53] = test system: U-251
[54] = test system: A498
[55] = test system: Malme-3M
[56] = test system: KM12
[57] = test system: MDA-N
[58] = test system: SF-295
[59] = test system: MCF7
[60] = test system: SK-MEL-2
[61] = test system: DU-145
[62] = test system: Hs-578T
[63] = test system: OVCAR-3
[64] = test system: NCI/ADR-RES
[65] = test system: NCI-H522
[66] = test system: T47D

CCO[C@]12C[C@H](OC)[C@@]3(O)CC(C1[C@H]3O)C13C4C2[C@H](OC)C1[C@](COC)(CN4CC)[C@H](O)C[C@@H]3OC (some centres not stated)
GI50 [1]: > 100 µM (inactive)
GI50 [2]: > 100 µM (inactive)
GI50 [3]: > 100 µM (inactive)
GI50 [4]: > 100 µM (inactive)
GI50 [5]: > 100 µM (inactive)
GI50 [6]: > 100 µM (inactive)
GI50 [7]: > 100 µM (inactive)
GI50 [8]: > 100 µM (inactive)
GI50 [9]: > 100 µM (inactive)
GI50 [10]: > 100 µM (inactive)
GI50 [11]: > 100 µM (inactive)
GI50 [12]: > 100 µM (inactive)
GI50 [13]: > 100 µM (inactive)
GI50 [14]: > 100 µM (inactive)
GI50 [15]: 66.2 µM (inactive)
GI50 [16]: > 100 µM (inactive)
GI50 [17]: > 100 µM (inactive)
GI50 [18]: > 100 µM (inactive)
GI50 [19]: > 100 µM (inactive)
GI50 [20]: > 100 µM (inactive)
GI50 [21]: > 100 µM (inactive)
GI50 [22]: > 100 µM (inactive)
GI50 [23]: > 100 µM (inactive)
GI50 [24]: > 100 µM (inactive)
GI50 [25]: > 100 µM (inactive)
GI50 [26]: > 100 µM (inactive)
GI50 [27]: > 100 µM (inactive)
GI50 [28]: > 100 µM (inactive)
GI50 [29]: > 100 µM (inactive)
GI50 [30]: > 100 µM
GI50 [31]: > 100 µM (inactive)
GI50 [32]: > 100 µM (inactive)
GI50 [33]: > 100 µM (inactive)
GI50 [34]: > 100 µM (inactive)
GI50 [35]: > 100 µM (inactive)
GI50 [36]: > 100 µM (inactive)
GI50 [37]: > 100 µM (inactive)
GI50 [38]: > 100 µM (inactive)
GI50 [39]: > 100 µM (inactive)
GI50 [40]: > 100 µM (inactive)
GI50 [41]: > 100 µM (inactive)
GI50 [42]: > 10 µM (inactive)
GI50 [43]: > 100 µM (inactive)
GI50 [44]: > 100 µM (inactive)
GI50 [45]: > 100 µM (inactive)

COc1cc(O)c2c(c1)C(O)C(O)CC1OC1C(=O)/C=C/CC(C)OC2=O (configuration not stated)
GI50 [46]: 0.979 µM (active)
GI50 [47]: 1.08 µM (active)
GI50 [48]: 0.354 µM (active)
GI50 [49]: 3.86 µM (inactive)
GI50 [1]: 3.1 µM (inactive)
GI50 [2]: 2.03 µM (inactive)
GI50 [3]: 12.2 µM (inactive)
GI50 [4]: 0.0794 µM (active)
GI50 [5]: 0.0849 µM (active)
GI50 [6]: 0.982 µM (active)
GI50 [50]: 3.52 µM (inactive)
GI50 [7]: 0.0904 µM (active)
GI50 [51]: 0.838 µM (active)
GI50 [8]: 0.0933 µM (active)
GI50 [9]: 0.412 µM (active)
GI50 [10]: 1.64 µM (inactive)
GI50 [11]: 3.27 µM (inactive)
GI50 [12]: 19.7 µM (inactive)
GI50 [13]: 0.0877 µM (active)
GI50 [14]: 19.8 µM (inactive)
GI50 [15]: 3.2 µM (inactive)
GI50 [16]: 3.72 µM (inactive)
GI50 [17]: 2.1 µM (inactive)
GI50 [18]: 1.11 µM (active)
GI50 [20]: 8.53 µM (inactive)
GI50 [52]: 11.6 µM (inactive)
GI50 [21]: 0.216 µM (active)
GI50 [53]: 8.18 µM (inactive)
GI50 [22]: 2.48 µM (inactive)
GI50 [54]: 5.42 µM (inactive)
GI50 [55]: 0.029 µM (active)
GI50 [56]: 10.4 µM (inactive)
GI50 [25]: 12.9 µM (inactive)
GI50 [57]: 0.454 µM (active)
GI50 [58]: 15.6 µM (inactive)
GI50 [27]: 6.34 µM (inactive)
GI50 [59]: 4.07 µM (inactive)
GI50 [60]: 2.72 µM (inactive)
GI50 [28]: 18 µM (inactive)
GI50 [29]: 2.7 µM (inactive)
GI50 [61]: 15.7 µM (inactive)
GI50 [62]: 10 µM (inactive)
GI50 [30]: 2.93 µM
GI50 [63]: 2.74 µM (inactive)
GI50 [64]: 3.68 µM (inactive)
GI50 [33]: 1.17 µM (inactive)
GI50 [34]: 3.99 µM (inactive)
GI50 [35]: 1.26 µM (inactive)
GI50 [36]: 2.28 µM (inactive)
GI50 [37]: 4.13 µM (inactive)
GI50 [38]: 7.03 µM (inactive)
GI50 [65]: 1.52 µM (inactive)
GI50 [40]: 3.88 µM (inactive)
GI50 [41]: 1.7 µM (inactive)
GI50 [42]: 6.65 µM (inactive)
GI50 [66]: 5.05 µM (inactive)
GI50 [43]: 10.4 µM (inactive)
GI50 [44]: 0.194 µM (active)
GI50 [45]: 20.5 µM (inactive)

N#Cc1c(-c2ccccc2)cc(-c2ccccc2)n(C2OC(CO)C(O)C(O)C2O)c1=O (configuration not stated)
GI50 [1]: 69.7 µM (inactive) and 84.3 µM (inactive)
GI50 [2]: 41 µM (inactive) and 38.2 µM (inactive)
GI50 [7]: 86.5 µM (inactive) and 84.3 µM (inactive)
GI50 [21]: 43.9 µM (inactive) and 44.2 µM (inactive)
GI50 [29]: 47.3 µM (inactive)
GI50 [35]: 59.8 µM (inactive) and 47.1 µM (inactive)
GI50 [39]: 68.4 µM (inactive) and 97.5 µM (inactive)
GI50 [40]: 61.9 µM (inactive) and 63.1 µM (inactive)
GI50 [41]: 44.2 µM (inactive) and 49.7 µM (inactive)

O=C(c1nc2ccc(Cl)cc2nc1O)C(O)c1ccccc1 (configuration not stated)
GI50 [47]: 65.5 µM (inactive)
GI50 [48]: 18.2 µM (inactive)
GI50 [1]: 3.85 µM (inactive)
GI50 [2]: 13.2 µM (inactive)
GI50 [3]: > 100 µM (inactive)
GI50 [4]: > 100 µM (inactive)
GI50 [5]: > 100 µM (inactive)
GI50 [50]: > 100 µM (inactive)
GI50 [7]: 96.8 µM (inactive)
GI50 [8]: > 100 µM (inactive)
GI50 [9]: > 100 µM (inactive)
GI50 [10]: > 100 µM (inactive)
GI50 [11]: 14.3 µM (inactive)
GI50 [12]: > 100 µM (inactive)
GI50 [13]: > 100 µM (inactive)
GI50 [14]: > 100 µM (inactive)
GI50 [15]: 39 µM (inactive)
GI50 [16]: > 100 µM (inactive)
GI50 [17]: 92.9 µM (inactive)
GI50 [18]: > 100 µM (inactive)
GI50 [19]: > 100 µM (inactive)
GI50 [20]: 22 µM (inactive)
GI50 [21]: 9.86 µM (inactive)
GI50 [53]: > 10 µM (inactive)
GI50 [22]: > 100 µM (inactive)
GI50 [23]: 76 µM (inactive)
GI50 [54]: 14.8 µM (inactive)
GI50 [55]: > 100 µM (inactive)
GI50 [56]: 51.2 µM (inactive)
GI50 [24]: > 100 µM (inactive)
GI50 [25]: 84.7 µM (inactive)
GI50 [58]: > 100 µM (inactive)
GI50 [26]: 56.5 µM (inactive)
GI50 [27]: > 100 µM (inactive)
GI50 [60]: > 100 µM (inactive)
GI50 [28]: > 100 µM (inactive)
GI50 [29]: 13 µM (inactive)
GI50 [30]: 98.6 µM
GI50 [31]: > 100 µM (inactive)
GI50 [63]: 32.8 µM (inactive)
GI50 [32]: 98.6 µM (inactive)
GI50 [33]: > 100 µM (inactive)
GI50 [34]: 57.7 µM (inactive)
GI50 [35]: 2.32 µM (inactive)
GI50 [36]: > 100 µM (inactive)
GI50 [37]: > 100 µM (inactive)
GI50 [38]: > 100 µM (inactive)
GI50 [39]: 32.7 µM (inactive)
GI50 [65]: 10.9 µM (inactive)
GI50 [40]: 34.8 µM (inactive)
GI50 [41]: 21.8 µM (inactive)
GI50 [43]: 77.1 µM (inactive)
GI50 [44]: 68.7 µM (inactive)
GI50 [45]: 35.2 µM (inactive)
